The compounds below were run against T1, ΔF508-CFTR (Homo sapiens, UniProt P13569, DEL508-508) (assay: hBE equivalent current (Ieq) assay: AUC of equivalent chloride current after forskolin/VX-770 in primary lung epithelial cells homozygous for ΔF508). Details: relative to CFTR amplifier (Compound A)+VX-809 (3 uM), compound at 10 uM and Compound A at 3 uM, 24 h treatment.
T1 construct: Primary lung epithelial cells homozygous for the Cystic Fibrosis-causing ΔF508 mutation were differentiated for a minimum of 4 weeks; endogenous in cells; host or cells: primary lung epithelial cells (hBE) homozygous for ΔF508, differentiated at an air-liquid interface
T1 sequence (P13569 with tags, fused parts or gaps DEL508-508): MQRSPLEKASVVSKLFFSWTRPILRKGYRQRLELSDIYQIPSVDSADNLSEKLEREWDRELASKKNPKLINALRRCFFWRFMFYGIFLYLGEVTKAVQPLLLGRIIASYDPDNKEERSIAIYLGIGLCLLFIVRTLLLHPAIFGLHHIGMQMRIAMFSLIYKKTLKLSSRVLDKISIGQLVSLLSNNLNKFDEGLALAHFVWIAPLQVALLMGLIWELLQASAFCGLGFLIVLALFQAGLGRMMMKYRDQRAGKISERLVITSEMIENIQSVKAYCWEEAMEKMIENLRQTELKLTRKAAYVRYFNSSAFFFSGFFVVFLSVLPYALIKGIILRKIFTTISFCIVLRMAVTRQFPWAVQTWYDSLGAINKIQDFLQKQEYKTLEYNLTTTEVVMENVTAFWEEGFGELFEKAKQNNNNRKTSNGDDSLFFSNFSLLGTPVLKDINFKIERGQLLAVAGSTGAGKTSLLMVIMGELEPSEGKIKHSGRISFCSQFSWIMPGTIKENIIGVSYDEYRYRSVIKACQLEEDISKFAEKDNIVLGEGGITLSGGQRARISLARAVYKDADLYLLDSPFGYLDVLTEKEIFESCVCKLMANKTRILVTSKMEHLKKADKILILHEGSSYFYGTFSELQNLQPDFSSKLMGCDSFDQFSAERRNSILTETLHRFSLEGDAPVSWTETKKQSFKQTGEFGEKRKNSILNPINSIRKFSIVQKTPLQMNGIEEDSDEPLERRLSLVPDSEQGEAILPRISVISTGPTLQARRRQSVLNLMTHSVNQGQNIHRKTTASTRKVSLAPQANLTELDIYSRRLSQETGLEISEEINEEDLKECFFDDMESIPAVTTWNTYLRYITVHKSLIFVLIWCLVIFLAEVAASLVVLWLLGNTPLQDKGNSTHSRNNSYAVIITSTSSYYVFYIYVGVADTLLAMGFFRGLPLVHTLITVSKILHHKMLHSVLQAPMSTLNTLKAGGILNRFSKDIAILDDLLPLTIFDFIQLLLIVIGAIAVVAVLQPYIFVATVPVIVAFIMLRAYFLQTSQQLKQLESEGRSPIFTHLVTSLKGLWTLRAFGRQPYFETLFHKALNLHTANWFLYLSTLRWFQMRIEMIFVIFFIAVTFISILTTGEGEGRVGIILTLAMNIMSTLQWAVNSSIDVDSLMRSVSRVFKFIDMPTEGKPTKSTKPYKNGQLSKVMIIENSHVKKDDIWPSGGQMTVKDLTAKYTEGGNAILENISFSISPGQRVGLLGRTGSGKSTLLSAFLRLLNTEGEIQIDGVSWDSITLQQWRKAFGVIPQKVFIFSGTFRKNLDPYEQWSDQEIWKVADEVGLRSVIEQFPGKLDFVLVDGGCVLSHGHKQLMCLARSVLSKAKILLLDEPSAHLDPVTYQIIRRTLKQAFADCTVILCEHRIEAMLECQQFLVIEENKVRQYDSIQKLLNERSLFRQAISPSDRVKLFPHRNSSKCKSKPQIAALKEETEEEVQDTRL
Type: cell-based
Method: ii. hBE Equivalent Current (Ieq) Assay
Primary lung epithelial cells homozygous for the Cystic Fibrosis-causing ΔF508 mutation were differentiated for a minimum of 4 weeks in an air-liquid interface on Costar 24 well HTS filter plates prior to the equivalent current (Ieq) measurements. Cells were apically mucus-washed for 30 minutes 24 h prior to treatment with compounds. The basolateral media was removed and replaced with media containing the compound of interest diluted to its final concentration from DMSO stocks. Treated cells were incubated at 37° C. and 5% CO2 for 24 hours. At the end of the treatment period, the media was changed to the Ieq experimental solution for 2 hours before the experiment and plates are maintained in a CO2-free incubator during this period. The plates containing the cells were then placed in pre-warmed heating blocks at 36° C.±0.5 for 15 minutes before measurements are taken. The transepithelial voltage (VT) and conductance (GT) were measured using a custom 24 channel current clamp (TECC-24) with 24 well electrode manifold. The Ieq assay measurements were made following additions with standardized time periods: • 1. The baseline VT and GT values were measured for approximately 20 minutes. • 2. Benzamil was added to block ENaC for 15 minutes. • 3. Forskolin plus VX-770 were added to maximally activate ΔF508-CFTR for 27 minutes. • 4. Bumetanide was added to inhibit the NaK2Cl cotransporter and shut-off secretion of chloride.
The activity data captured was the area under the curve (AUC) for the traces of the equivalent chloride current. The AUC was collected from the time of the forskolin/VX-770 addition until the inhibition by bumetanide addition. Correction in response to compound treatment was scored as the increase in the AUC for compound-treated samples over that of vehicle-treated samples.
(+ indicates activity<50% of an CFTR amplifier (Compound A)+VX-809 (3 uM) with compound at 10 uM and Compound A at 3 uM; ++ indicates activity>50% of CFTR amplifier+VX-809 (3 uM) with compound at 10 uM and Compound A at 3 uM.

With `Cc1c(-c2cc(C(=O)O)c3cc(C4CC4)cc(C)c3n2)oc2ccccc12` [Compound 28, 6-Cyclopropyl-8-methyl-2-(3-methyl-1-benzofuran-2-yl)quinoline-4-carboxylic Acid] as the compound, how does the Activity read?
The Activity was “++ (activity>50% of CFTR amplifier+VX-809 (3 uM) with compound at 10 uM and Compound A at 3 uM)”.

With `Cc1cc(C)c2nc(-c3oc4ccccc4c3C)cc(CO)c2c1` [Compound 29, [6,8-Dimethyl-2-(3-methyl-1-benzofuran-2-yl)quinolin-4-yl]methanol] as the compound, how does the Activity read?
The Activity was “+ (activity<50% of an CFTR amplifier (Compound A)+VX-809 (3 uM) with compound at 10 uM and Compound A at 3 uM)”.

With `Cc1c(-c2cc(C(=O)O)c3c(OCc4ccccc4)ccc(C)c3n2)oc2ccccc12` [Compound 30, 5-(benzyloxy)-8-methyl-2-(3-methyl-1-benzofuran-2-yl)quinoline-4-carboxylic acid] as the compound, how does the Activity read?
Its Activity is “++ (activity>50% of CFTR amplifier+VX-809 (3 uM) with compound at 10 uM and Compound A at 3 uM)”.

`Cc1c(-c2cc(C(=O)O)c3c(C)ccc(C)c3n2)oc2ccccc12` [Compound 31, 5,8-Dimethyl-2-(3-methyl-1-benzofuran-2-yl)quinoline-4-carboxylic acid] was tested. Which Activity did it give?
Its Activity is “++ (activity>50% of CFTR amplifier+VX-809 (3 uM) with compound at 10 uM and Compound A at 3 uM)”.

`CCc1c(-c2cc(C(=O)O)c3c(C)ccc(C)c3n2)oc2ccccc12` [Compound 32, 2-(3-Ethyl-1-benzofuran-2-yl)-5,8-dimethylquinoline-4-carboxylic acid] was tested. Which Activity did it give?
Its Activity is “++ (activity>50% of CFTR amplifier+VX-809 (3 uM) with compound at 10 uM and Compound A at 3 uM)”.

For `Cc1c(-c2cc(C(=O)O)c3c(OCc4ccccc4)ccc(C)c3n2)sc2ccccc12` [Compound 33, 5-(Benzyloxy)-8-methyl-2-(3-methyl-1-benzothiophen-2-yl)quinoline-4-carboxylic acid], which Activity is on record?
Its Activity is “++ (activity>50% of CFTR amplifier+VX-809 (3 uM) with compound at 10 uM and Compound A at 3 uM)”.

With `Cc1ccc(OCc2ccccc2)c2c(C(=O)O)cc(-c3cc4ccccc4s3)nc12` [Compound 34, 2-(1-Benzothiophen-2-yl)-5-(benzyloxy)-8-methylquinoline-4-carboxylic acid] as the compound, how does the Activity read?
The Activity was “++ (activity>50% of CFTR amplifier+VX-809 (3 uM) with compound at 10 uM and Compound A at 3 uM)”.

With `Cc1oc2ccccc2c1-c1cc(C(=O)O)c2c(OCc3ccccc3)ccc(C)c2n1` [Compound 35, 5-(Benzyloxy)-8-methyl-2-(2-methyl-1-benzofuran-3-yl)quinoline-4-carboxylic acid] as the compound, how does the Activity read?
Its Activity is “++ (activity>50% of CFTR amplifier+VX-809 (3 uM) with compound at 10 uM and Compound A at 3 uM)”.

Which Activity does the source give for `Cc1c(-c2cc(C(=O)O)c3cc(C(C)C)cc(C)c3n2)oc2ccccc12` [Compound 36] here?
The Activity was “++ (activity>50% of CFTR amplifier+VX-809 (3 uM) with compound at 10 uM and Compound A at 3 uM)”.

How did the Activity turn out when `Cc1c(-c2cc(C(=O)O)c3cc(-c4ccccc4)cc(C)c3n2)oc2ccccc12` [Compound 37] was run?
Its Activity is “++ (activity>50% of CFTR amplifier+VX-809 (3 uM) with compound at 10 uM and Compound A at 3 uM)”.

How did the Activity turn out when `Cc1ccc(C)c2c(C(=O)O)cc(-c3oc4ccccc4c3Cl)nc12` [Compound 38, 2-(3-Chloro-1-benzofuran-2-yl)-5,8-dimethylquinoline-4-carboxylic acid] was run?
The Activity was “+ (activity<50% of an CFTR amplifier (Compound A)+VX-809 (3 uM) with compound at 10 uM and Compound A at 3 uM)”.

For `Cc1ccc(C)c2c(C(=O)O)cc(-c3oc4ccccc4c3Br)nc12` [Compound 39, 2-(3-Bromo-1-benzofuran-2-yl)-5,8-dimethylquinoline-4-carboxylic acid], which Activity is on record?
The Activity was “+ (activity<50% of an CFTR amplifier (Compound A)+VX-809 (3 uM) with compound at 10 uM and Compound A at 3 uM)”.

How did the Activity turn out when `Cc1c(-c2cc(C(=O)O)c3c(C)ccc(OCc4ccccc4)c3n2)oc2ccccc12` [Compound 40, 8-(Benzyloxy)-5-methyl-2-(3-methyl-1-benzofuran-2-yl)quinoline-4-carboxylic acid] was run?
Its Activity is “+ (activity<50% of an CFTR amplifier (Compound A)+VX-809 (3 uM) with compound at 10 uM and Compound A at 3 uM)”.

`Cc1cc2c(C(=O)O)cc(-c3oc4ccccc4c3C)nc2cc1OCc1ccccc1` [Compound 41, 7-(Benzyloxy)-6-methyl-2-(3-methyl-1-benzofuran-2-yl)quinoline-4-carboxylic acid] was tested. Which Activity did it give?
The Activity was “+ (activity<50% of an CFTR amplifier (Compound A)+VX-809 (3 uM) with compound at 10 uM and Compound A at 3 uM)”.

For `Cc1c(-c2cc(C(=O)O)c3c(OCCc4ccccc4)ccc(C)c3n2)oc2ccccc12` [Compound 73, 8-methyl-2-(3-methyl-1-benzofuran-2-yl)-5-(2-phenylethoxy)quinoline-4-carboxylic acid], which Activity is on record?
The Activity was “++ (activity>50% of CFTR amplifier+VX-809 (3 uM) with compound at 10 uM and Compound A at 3 uM)”.

For `Cc1c(-c2cc(C(=O)O)c3c(OC4CC(c5ccccc5)C4)ccc(C)c3n2)oc2ccccc12` (centres unmarked) [Compound 75, 8-Methyl-2-(3-methyl-1-benzofuran-2-yl)-5-(3-phenylcyclobutoxy)quinoline-4-carboxylic acid], which Activity is on record?
The Activity was “++ (activity>50% of CFTR amplifier+VX-809 (3 uM) with compound at 10 uM and Compound A at 3 uM)”.

With `Cc1c(-c2cc(C(=O)O)c3c(O[C@H]4CC[C@H](c5ccccc5)CC4)ccc(C)c3n2)oc2ccccc12` [Compound 76, 8-Methyl-2-(3-methyl-1-benzofuran-2-yl)-5-[[(1r,4r)-4-phenylcyclohexyl]oxy]quinoline-4-carboxylic acid] as the compound, how does the Activity read?
The Activity was “++ (activity>50% of CFTR amplifier+VX-809 (3 uM) with compound at 10 uM and Compound A at 3 uM)”.

`Cc1c(-c2cc(C(=O)O)c3c(OC4CCCC(c5ccccc5)C4)ccc(C)c3n2)oc2ccccc12` (centres unmarked) [Compound 77, 8-Methyl-2-(3-methyl-1-benzofuran-2-yl)-5-[(3-phenylcyclohexyl)oxy]quinoline-4-carboxylic acid] was tested. Which Activity did it give?
The Activity was “++ (activity>50% of CFTR amplifier+VX-809 (3 uM) with compound at 10 uM and Compound A at 3 uM)”.

`Cc1c(-c2cc(C(=O)O)c3c(OC4CCCCC4)ccc(C)c3n2)oc2ccccc12` [Compound 79, 5-(Cyclohexyloxy)-8-methyl-2-(3-methyl-1-benzofuran-2-yl)quinoline-4-carboxylic acid] was tested. Which Activity did it give?
Its Activity is “++ (activity>50% of CFTR amplifier+VX-809 (3 uM) with compound at 10 uM and Compound A at 3 uM)”.

For `Cc1c(-c2cc(C(=O)O)c3c(OC(=O)Nc4ccccc4)ccc(C)c3n2)oc2ccccc12` [Compound 81, 8-Methyl-2-(3-methyl-1-benzofuran-2-yl)-5-[(phenylcarbamoyl)oxy]quinoline-4-carboxylic Acid], which Activity is on record?
The Activity was “+ (activity<50% of an CFTR amplifier (Compound A)+VX-809 (3 uM) with compound at 10 uM and Compound A at 3 uM)”.

How did the Activity turn out when `Cc1ccc(OCc2ccccc2)c2c(C(=O)O)cc(-c3snc4ccccc34)nc12` [Compound 86, 2-(2,1-Benzothiazol-3-yl)-5-(benzyloxy)-8-methylquinoline-4-carboxylic Acid] was run?
Its Activity is “++ (activity>50% of CFTR amplifier+VX-809 (3 uM) with compound at 10 uM and Compound A at 3 uM)”.

How did the Activity turn out when `Cc1ccc(OCc2ccccc2)c2c(C(=O)O)cc(-c3csc4ccccc34)nc12` [Compound 95, 2-(1-Benzothiophen-3-yl)-5-(benzyloxy)-8-methylquinoline-4-carboxylic acid] was run?
The Activity was “++ (activity>50% of CFTR amplifier+VX-809 (3 uM) with compound at 10 uM and Compound A at 3 uM)”.

For `Cc1c(-c2cc(C(=O)O)c3c(OC4CCC(c5nnco5)CC4)ccc(C)c3n2)oc2ccccc12` (centres unmarked) [Compound 97, 8-Methyl-2-(3-methyl-1-benzofuran-2-yl)-5-[[4-(1,3,4-oxadiazol-2-yl)cyclohexyl]oxy]quinoline-4-carboxylic acid], which Activity is on record?
The Activity was “++ (activity>50% of CFTR amplifier+VX-809 (3 uM) with compound at 10 uM and Compound A at 3 uM)”.
